Entries after “also recorded” stand apart in the source; their conditions may differ. Each block holds one molecule with its values, some of them ahead of it.
Columns and labels:
[1] = Solubility testing in water by portionwise addition until saturation; assay type: physicochemical
Procedure: The solubility of compounds 2-4 was determined by portionwise addition of the compounds to water until saturation was obtained. Water (10 mL) was added to a 20-mL vial. About 100 mg of Compound 2 was added. The suspension was stirred at room temperature for 20 minutes until the contents became a clear solution. Compound 2 (˜100 mg portionwise) was added repeatedly with 30 min stirring time between the additions. Once a suspension was obtained after continuous stirring for 2 hours, the suspension was stirred overnight. The same procedure was used for the suspension preparations of Compound 3 and Compound 4.
After stirring overnight, filtration of each sample was attempted.
An aliquot of the suspension of Compound 2 was filtered through a 0.22 micron inline syringe filter.
About 1 mL of the aqueous solutions prepared above was diluted with water by 50%. The pH of the 50% diluted solutions was adjusted to pH 7 either by 0.1 N HCl or by 0.1 N NaOH. Solubility values for the three compounds in the solutions/suspensions before and after dilution are given in the in TABLE 3.
The solubility of Compounds 2-4 was determined by portionwise addition of the compounds to water until saturation was obtained. After stirring overnight, the suspensions were filtered and analyzed by HPLC. […] The solubility of Compound 3 was >200 mg/mL. The absolute solubility of Compound 3 was not determined because in the course of analysis, the solution of Compound 3 became too viscous to stir. […] The 50% diluted solutions of Compounds 2-4 were not viscous, and the compounds remained in solution for 4 weeks. […] All of the diluted solutions were easily syringable over 4 weeks' time.

[2] = HPLC purity analyses of aqueous solutions over time at room temperature (chemical stability); assay type: physicochemical
[3] = tested on: phospho-Akt1 (pAkt); assay: Phospho-Akt activation assay in human umbilical vein endothelial cells (Western blot); assay type: cell-based
Procedure: The ability of the small molecule analogues as shown in EXAMPLES 1-3 to stimulate production of phospho-Akt1 (pAkt) was tested. Akt plays a critical role in controlling cell survival and apoptosis, and Akt phosphorylation is increased by the activation of Tie-2. Akt activation can be detected by an antibody that recognizes phosphorylation on the serine 473 residue on Akt.
HUVECs were seeded at 500,000 cells/mL in chemically-defined basal media, and supplemented with distinct growth factors (EGM-2). The following growth factors were required for survival and normal phenotypic expression of endothelial characteristics: fetal bovine serum 2%, hydrocortisone, human fibroblast growth factor-B, vascular endothelial growth factor, recombinant insulin growth factor R3, ascorbic acid, human epidermal growth factor, gentamicin sulfate, amphotericin B, and heparin. Cells were derived from one donor, cultivated in 10 cm dishes, and expanded upon reaching 90% confluence. After three passages, the cells were expanded and ready for testing.
The cells were seeded at 25,000 cells/mL in 6-well plates, and covered with 2 mL of complete media. The cells were fed on day 2 of culture with 2 mL of fresh EGM-2 media. 72 hours after plating, the cells were serum starved by rinsing twice with 2 mL of sterile phosphate buffered saline, and then placed at 37° C. for 3 hours in the presence of basal EGM-2 media (1.5 mL/well without growth factors). The serum starvation allowed the cells to become quiescent.
Compounds 2-4 were dissolved in distilled deionized water at the following concentrations: • Compound 2 (Molecular weight: 622.7): 31 mg/ml. • Compound 3 (Molecular weight: 622.7): 26 mg/ml. • Compound 4 (Molecular weight: 636.7): 32 mg/ml.
All compounds were stored at 4° C. […] Stock concentrations of the above molecules were made at a final working concentration of 1 mM. Specific microliter volumes of the working concentration were added to each 6 well plate at the following concentrations: 3, 10, and 30 micromolar (μM). Cells were treated for 30 minutes.
10× cell lysis buffer was diluted fresh with dH2O. The 1× cell lysis buffer contained: 20 mM Tris-HCl (pH 7.5), 150 mM NaCl, 1 mM Na2EDTA, 1 mM EGTA, 1% Triton, 2.5 mM sodium pyrophosphate, 1 mM β-glycerophosphate, 1 mM Na3VO4, 1 μg/ml leupeptin, and 1 mM PMSF. Immediately before use, 1 mM PMSF was prepared by diluting from a stock of 1 M PMSF made up in DMSO. In addition, a 1× concentration of a Halt protease & phosphatase inhibitor cocktail was included. At the end of the 30 minute treatment, the media was discarded from the cell culture wells by shaking out, and the remaining media was aspirated off the wells. Ice-cold lysis buffer was added at 140 μL/well, and the culture was placed on ice or in a cold room for 30 minutes while rocking. Cell lysates were collected using a cell scraper, placed in microfuge tubes, and stored at −80° C. The levels of protein were quantitated using a microtiter plate BCA protein assay.
2× Laemmli sample buffer was added in equal volume to the […] cell lysis buffer, which contained the lysed endothelial cells. The solution was heated at 100° C. for 5 minutes and then sonicated for 10 seconds. After sonication, the lysates were spun by centrifuge at 4° C. for 5 minutes at 17,000 rpm. 70-100 μg of protein calculated from BCA assay prior to addition of 2× Laemmli sample were added per well of an 8% polyacrylamide gel.
Electrophoresis was performed at 150 volts for approximately 90 minutes at room temperature with 1× Laemmli running buffer. The proteins from the gel were transferred to nitrocellulose at 100 volts for 45 minutes on ice.
The nitrocellulose membranes were removed quickly without drying and placed in phosphate buffered saline (pH 7.3) with 1% nonfat dried milk. The membranes were blocked in the milk solution while rocking for 2 hours at room temperature or overnight at 4° C. […]

[4] = Syringability testing (200 g weight on BD 1-mL syringe plunger, 27 G needle); assay type: physicochemical; conditions: for Syringability: time to expel 1 mL: 50% diluted solution
Procedure: Syringability testing was carried out by applying 200 g of weight on top of a BD 1-mL syringe plunger and measuring the time required to expel 1 mL of the saturated solutions through a 27 G needle. The times are recorded in TABLE 4. At T=0, 43 seconds were required to expel 1 mL of Compound 2, while 8 seconds were required to expel 1 mL of Compound 4. In contrast, approximately 5 minutes were required to expel only 0.1 mL of Compound 3, based on the very high viscosity of the solution relative to that of the other two.
Syringability test results of the 50% diluted solutions (TABLE 5) indicated a slight increase in viscosity (syringability test for water was 10 sec). All three solutions remained easily syringable.

[5] = Physical stability (appearance) of the aqueous solutions standing at room temperature; assay type: physicochemical; conditions: for Appearance of solution: undiluted

- Physical state of the preparation ([1]; 50% dilution, T = 4 weeks): (solution)
- Physical state of the preparation ([1]; Before dilution, T = 0): (viscous solution)
- Solubility value in water ([1]; Before dilution, T = 5 weeks, room temperature): No change*
- Amount (g) of compound added until saturation ([1]; added portionwise to 10 mL water, room temperature): 2.323 g
- Filtration ([1]; filtration of the sample attempted after stirring overnight): not filtered successfully and No
- solubility at 4 weeks ([1]; water, pH 7, aqueous buffer, 50% dilution with water, adjusted to pH 7, T = 4 weeks): > 115 mg/mL
- solubility at 0 weeks ([1]; water, thermodynamic from solid, Before dilution, T = 0, estimated from weight added): > 230 mg/mL
- solubility ([1]; water, thermodynamic from solid, Conclusions: suspensions stirred overnight, filtered and analyzed by HPLC, initial): > 200 mg/mL
- HPLC purity ([2]; 50% diluted samples, room temperature, T = 4 weeks): 97.9%
- HPLC purity ([2]; undiluted samples, T = 0 (dry sample)): 99.08%
- HPLC purity ([2]; undiluted samples, room temperature, T = 5 weeks): 97.3%
- HPLC purity ([2]; undiluted samples, room temperature, T = 1 day): 98.26%
- Syringability: time to expel 1 mL ([4]; T = 2 week): 12 s
- Syringability: time to expel 1 mL ([4]; T = 3 week): 13 s
- Syringability: time to expel 1 mL ([4]; T = 4 week): 15 s
- Syringability: time to expel 1 mL ([4]; T = 2 day): 13 s
- Syringability: time to expel 1 mL ([4]; T = 3 day): 14 s
- Syringability: time to expel 1 mL ([4]; T = 4 day): 17 s
- Syringability: time to expel 1 mL ([4]; T = 7 day): 15 s
- Syringability of the saturated solutions (in words) ([4]; undiluted solutions): too viscous to syringe
- Gelation or precipitation of undiluted solution ([5]; throughout the 4-week study period (Compound 2: over 5 weeks)): No gelation or precipitation
- Appearance of solution ([5]; T = 0): Hazy
- Appearance of solution ([5]; T = 2 week): Hazy
- Appearance of solution ([5]; T = 3 week): Hazy
- Appearance of solution ([5]; T = 4 week): Hazy
- Appearance of solution ([5]; T = 1 day): Hazy
- Appearance of solution ([5]; T = 2 day): Hazy
- Appearance of solution ([5]; T = 3 day): Hazy
- Appearance of solution ([5]; T = 4 day): Hazy
- Appearance of solution ([5]; T = 5 day): Hazy
- Appearance of solution ([5]; T = 6 day): Hazy
Structure (SMILES): COC(=O)N[C@@H](Cc1ccccc1)C(=O)N(C)[C@@H](Cc1ccc(NS(=O)(=O)[O-])cc1)c1csc(-c2cccs2)n1.[Na+] [Compound 3, sodium (4-{(S)-2-{(S)-2-[(methoxycarbonyl)amino]-N-methyl-3-phenylpropanamido}-2-[2-(thiophen-2-yl)thiazol-4-yl]ethyl}phenyl)sulfamate]
- Physical appearance ([1]; after portionwise addition to 10 mL water): hazy, highly viscous mixture; also recorded: No precipitate
- pAkt signal above control ([3]; HUVECs, 30 μM, 30 minutes treatment): 80%
- Relative potencies for activation of pAkt ([3]; HUVECs, 3, 10 and 30 μM): Compound 2>Compound 4>Compound 3

Structure (SMILES): CCc1csc([C@H](Cc2ccc(NS(=O)(=O)O)cc2)NC(=O)[C@H](Cc2ccccc2)NC(=O)OC)n1 [Compound 5, 4-{(S)-2-[(S)-2-(methoxycarbonylamino)-3-phenylpropanamido]-2-(4-ethylthiazol-2-yl)ethyl}phenylsulfamic acid, reference compound]
- pAkt levels above control ([3]; HUVECs, highest dose 10 μM, two separate experiments): 278%
